# Read-outs that look alike come from different tables or passages of the source. *1 amine or outer side, *2 acyl side, *3 side chain or, on linkers, in order; H or OH if unused. Where a SMILES comes first, the peptide text is derived from it. Bridges are numbered along the chain shown (N, C = ends). [ ]: non-standard residue; d: D form. Adda = CO[C@@H](Cc1ccccc1)[C@@H](C)/C=C(C)/C=C/[C@H](N[*:1])[C@H](C)C(=O)[*:2]; dAsp(3S-Me) = C[C@H](C(=O)[*:3])[C@@H](N[*:1])C(=O)[*:2]; d(γGlu) = O=C(O)[C@@H](CCC(=O)[*:2])N[*:1]; NMeDha = C=C(NC)C(=O)O
# Experiments:
# PP1 [1] = target: T1, PP1 (Homo sapiens, UniProt P62136); assay: Protein phosphatase assay with [32P]-glycogen phosphorylase a as substrate, PP1; type: biochemical; parameters: made in house
# T1 sequence (P62136 whole entry): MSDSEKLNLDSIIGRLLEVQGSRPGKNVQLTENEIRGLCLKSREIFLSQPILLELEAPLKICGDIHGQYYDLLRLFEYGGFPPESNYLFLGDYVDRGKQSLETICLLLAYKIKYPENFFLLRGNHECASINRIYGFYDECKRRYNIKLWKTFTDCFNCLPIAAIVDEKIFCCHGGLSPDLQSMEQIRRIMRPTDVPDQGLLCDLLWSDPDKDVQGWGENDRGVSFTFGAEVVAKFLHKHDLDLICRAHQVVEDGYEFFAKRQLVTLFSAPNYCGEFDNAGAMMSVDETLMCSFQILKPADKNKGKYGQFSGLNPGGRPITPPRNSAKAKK
# Description: (§1) Protein phosphatase assays were carried out essentially as described (Collins, E.; Sim, A. T. R.; Methods in Molecular Biology 1998, 93, 79-102) using [^32P]-glycogen phosphorylase a as substrate and recombinant PP1 (Bernt, N. Methods in Molecular Biology, 1998, 93, 67-78) or partially purified (chicken skeletal muscle) PP2A catalytic subunits (Mackintosh, C. In Protein Phosphorylation: A Practical Approach, Ed D G Hardie, IRL, 1993). Briefly, enzyme activity was measured at 30 ° C. in a buffer (final volume of […]) containing 50 mM Tris-HCl (pH 7.5), 1 mM EGTA, 0.1 mM EDTA, 5 mM Caffeine, 0.1% mercaptoethanol, 0.3 mg/mL BSA. The concentration of PP1 or PP2A used was such that the reaction was limited to 15% dephosphorylation to ensure linearity. The reaction was started with the addition of […] [^32P]-glycogen phosphorylase a and terminated after 20 minutes by the addition of […] ice-cold 70% TCA. After 10 minutes on ice the sample was centrifuged and a […] aliquot of the supematant was removed for scintillation counting of the [^32p] released during the reaction.
# [2] = tested on: HL60 (human leukaemia, p53 nul); assay: cells; type: cell-based
# Excerpt: (§2) The MTT assay can be used assess cytotoxicity.
# [3] = tested on: HT29 (human colon carcinoma, p53 mt); assay: cells; type: cell-based
# Excerpt: as §2
# [4] = tested on: WiDr (human colon carcinoma, p53 mt); assay: cells; type: cell-based
# Excerpt: as §2
# [5] = tested on: 143B (143BTK-, human oesteosarcoma); assay: cells; details: 72 h, read-out: Cytotoxicity IC50, 143B Ostesarcoma
# Excerpt: (§3) The cell lines chosen for study include both normal (non-cancer) and tumour-derived cell lines that represent both haematopoietic and solid tumor types with varying cell cycle control mechanisms (ie p53 status); CCD-18Co (normal human colon), L1210 (murine leukaemia, p53 mt), HL60 (human leukaemia, p53 nul), A2780 (human ovarian carcinoma, p53 wt), ADDP (cisplatin resistant A2780 cells, p53 mt), HCT116 (human colon carcinoma, p53 wt), SW480 (human colon carcinoma, p53 wt), WiDr (human colon carcinoma, p53 mt), HT29 (human colon carcinoma, p53 mt) and 143BTK-(human oesteosarcoma) cells.
# (§4) The MTT assay can be used assess cytotoxicity. This assay determines cell viability by the ability of mitochondrial dehydrogenase to produce formazan crystals from 3-(4,5-dimethylthiazol-2-yl)2,5-diphenyltetrazolium bromide. The viable cell number/well is directly proportional to the production of formazan, which following solubilization, can be measured spectrophotometrically (540 nm). […] This technique is also used by the NCI(National Cancer Institute, USA) to screen for new anticancer agents. The MTT assay may be performed 72 h after exposure of the cells to varying doses of the phosphatase inhibitors. Since these agents are likely to interfere with the cell cycle it is important to test the cytotoxicity for at least two-three cell divisions.
# [6] = tested on: A2780 (human ovarian carcinoma, p53 wt); assay: cells; details: A2780, 72 h, read-out: Cytotoxicity IC50, A2780 Ovarian
# Excerpt: as §3, §4
# [7] = target: partially purified (chicken skeletal muscle) PP2A catalytic subunits (Gallus gallus, UniProt P48463); type: biochemical
# Sequence of partially purified (chicken skeletal muscle) PP2A catalytic subunits (P48463 whole entry): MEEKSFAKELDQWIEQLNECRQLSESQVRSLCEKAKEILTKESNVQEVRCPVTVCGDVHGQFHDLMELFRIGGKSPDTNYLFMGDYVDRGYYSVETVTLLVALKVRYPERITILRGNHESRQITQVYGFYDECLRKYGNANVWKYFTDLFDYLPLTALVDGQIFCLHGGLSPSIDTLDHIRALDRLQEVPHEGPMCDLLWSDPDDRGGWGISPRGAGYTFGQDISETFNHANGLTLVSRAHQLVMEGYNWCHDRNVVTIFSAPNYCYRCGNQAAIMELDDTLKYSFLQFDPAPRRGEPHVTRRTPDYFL
# Description: as §1
# [8] = tested on: L1210 (murine leukaemia, p53 mt); assay: cells; type: cell-based; details: Mus musculus, Table 3, read-out: Cytotoxicity IC50, L1210
# Excerpt: as §2
# [9] = tested on: SW480 (human colon carcinoma, p53 wt); assay: cells; type: cell-based; details: Table 3, read-out: Cytotoxicity IC50, SW480
# Excerpt: as §2
# PP2A = PP2A (Homo sapiens, UniProt P67775); details: read-out: PP2A protein phosphatase inhibition (IC50), cited from earlier work
# Sequence of PP2A (P67775 whole entry): as the sequence (P48463 whole entry) above, with E2D, S5V, A7T, R21K, R29K, P108R counted along it
# PP1 [10] = target: T1, PP1; details: read-out: PP1 protein phosphatase inhibition (IC50), cited from earlier work
# HCT116 cells = assay: Cell cycle analysis (propidium iodide, flow cytometry); type: cell-based, human; details: Cantharidin 25 μM, 6 h
# Excerpt: The distribution of cells into the various phases of the cell cycle can be analysed by measuring the DNA content of the cells, via propidium iodide staining and subsequent flow cytometric analysis. Thus senescent cells (G0) and cells in the first gap (G1) of the cell cycle will have approximately half of the DNA content of cells about to under go mitosis (G2+M), while those cells synthesising DNA (S-phase) will have an intermediary DNA content. Using this technology, the effect of these new drugs on cells in the various phases of the cycle can be determined.
# [11] = tested on: ten difference cancer cell lines of ovarian, bone, colon and baematopoietic origin; assay: cells; details: read-out: Cytotoxicity IC50 values, range over ten cancer cell lines
# [12] = Table 2 cantharimides, average of three experiments in triplicate, read-out: PP1 Inhibition IC50
# [13] = HL-60, 72 h exposure, background Table 2, read-out: Cytotoxicity IC50, HL60 Leukaemia
# [14] = HT-29, 72 h exposure, background Table 2, read-out: Cytotoxicity IC50, HT29 Colon
# [15] = 72 h exposure, background Table 2, read-out: Cytotoxicity IC50, WiDr Colon
# [16] = HL-60, Table 3, read-out: Cytotoxicity IC50, HL60
# [17] = HT-29, Table 3, read-out: Cytotoxicity IC50, HT29
# [18] = Table 3 summary, read-out: PP1 Inhibition
# [19] = naturally occurring toxins, background Table 1
compound,measurement,setting,value
"O=C(O)C(Cc1ccc(O)cc1)N1C(=O)C2C3CCC(O3)C2C1=O (single isomer, unassigned) [Compound 17]",IC50,PP1 [1]; [12],570 ± 330 µM
O=C1OC(O)[C@@H]2[C@H]1[C@H]1CC[C@@H]2O1 (stereo partly shown),IC50,[2]; [13],393 ± 103 µM
same,IC50,[3]; [14],14 ± 0.3 µM
same,IC50,[4]; [15],15 ± 3 µM
same,IC50,[5],454 ± 50 µM
same,IC50,[6],333 ± 55 µM
C[C@@]12C(=O)OC(=O)[C@]1(C)[C@H]1CC[C@@H]2O1 [drawing 2],IC50,[2]; [13],10 ± 2 µM
same,IC50,[3]; [14],6.5 ± 0.5 µM
same,IC50,[4]; [15],6.1 ± 0.5 µM
same,IC50,[5],10 ± 1 µM
same,IC50,[6],10 ± 2 µM
C[C@H](C(=O)O)N1C(=O)C2C3CCC(O3)C2C1=O (stereo partly shown) [Compound 4],"PP2A inhibition, in words",[7],marginal activity
same,IC50,PP1 [1]; [12],> 1000 µM
O=C(O)[C@@H](Cc1cnc[nH]1)N1C(=O)C2C3CCC(O3)C2C1=O (stereo partly shown) [Compound 14],IC50,[2]; [16],21 ± 13 µM
same,IC50,[3]; [17],28 ± 9 µM
same,IC50,[8],6 ± 1 µM
same,IC50,[9],32 ± 12 µM
same,IC50,PP1 [1]; [12],3.22 ± 0.7 µM
same,IC50,PP1 [1]; [18],3.22 ± 0.7 µM
CC(C)C[C@H](C(=O)O)N1C(=O)C2C3CCC(O3)C2C1=O (stereo partly shown) [Compound 8],IC50,PP1 [1]; [12],> 1000 µM
C=C1[C@@H](O)[C@@H]2O[C@]3(CC[C@H](/C=C/[C@@H](C)[C@@H]4CC(C)=C[C@@]5(O[C@H](C[C@@](C)(O)C(=O)O)CC[C@H]5O)O4)O3)CC[C@H]2O[C@@H]1[C@@H](O)C[C@H](C)[C@H]1O[C@@]2(CCCCO2)CC[C@H]1C [Okadaic acid],IC50,PP2A; [19],0.51 nM
O=C(O)[C@H](Cc1ccccc1)N1C(=O)C2C3CCC(O3)C2C1=O (stereo partly shown) [Compound 7],IC50,PP1 [1]; [12],> 1000 µM
C[C@@](O)(/C=C/[C@H]1CC=CC(=O)O1)[C@@H](C[C@@H](O)\C=C/C=C\C=C\CO)OP(=O)(O)O [Fostriecin],IC50,PP1 [10]; [19],131 µM
same,IC50,PP2A; [19],3.4 nM
O=C(O)[C@H](Cc1c[nH]c2ccccc12)N1C(=O)C2C3CCC(O3)C2C1=O (stereo partly shown) [Compound 13],IC50,PP1 [1]; read-out: PP1 IC50,312 ± 153 µM
NC(=O)CC[C@H](C(=O)O)N1C(=O)C2C3CCC(O3)C2C1=O (stereo partly shown) [Compound 18],IC50,PP1 [1]; [12],95 ± 5 µM
CC[C@@H](C)[C@H](C(=O)O)N1C(=O)C2C3CCC(O3)C2C1=O (stereo partly shown) [Compound 10],IC50,PP1 [1]; [12],> 1000 µM
C[C@@H](C(=O)O)N1C(=O)C2C3CCC(O3)C2C1=O (stereo partly shown) [Compound 5],IC50,PP1 [1]; [12],> 1000 µM
CC[C@H](C)[C@@H](C(=O)O)N1C(=O)C2C3CCC(O3)C2C1=O (stereo partly shown) [Compound 11],IC50,PP1 [1]; [12],> 1000 µM
CCOC(=O)C1C(C(=O)O)[C@@H]2CC[C@H]1O2 (stereo partly shown) [R = CH3CH2],IC50,PP1 [1]; read-out: PP1 IC50,2.96 µM
O=C(O)[C@H](Cc1cnc[nH]1)N1C(=O)C2C3CCC(O3)C2C1=O (stereo partly shown) [Compound 15],IC50,[2]; [16],55 ± 24 µM
same,IC50,[3]; [17],28 ± 10 µM
same,IC50,[8],30 ± 14 µM
same,IC50,[9],61 ± 30 µM
same,IC50,PP1 [1]; [12],2.82 ± 0.6 µM
same,IC50,PP1 [1]; [18],2.82 ± 0.6 µM
C=C1C(=O)N[C@H](C)C(=O)N[C@@H](CC(C)C)C(=O)N[C@@H](C(=O)O)[C@H](C)C(=O)N[C@@H](CCCNC(=N)N)C(=O)N[C@@H](/C=C/C(C)=C/[C@H](C)[C@H](Cc2ccccc2)OC)[C@H](C)C(=O)N[C@@H](C(=O)O)CCC(=O)N1C [Microcystin LR] (R[Adda][d(γGlu)][NMeDha][dA]L[dAsp(3S-Me)]-OH; lactam N-7),IC50,PP1 [10],0.0017 µM
same,IC50,PP2A,0.04 nM
CCCOC(=O)C1C(C(=O)O)[C@@H]2CC[C@H]1O2 (stereo partly shown),IC50,"[2]; HL-60, 72 h, read-out: Cytotoxicity IC50, HL60 Leukaemia",270 ± 15 µM
same,IC50,"[3]; HT-29, 72 h, read-out: Cytotoxicity IC50, HT29 Colon",15 ± 5 µM
same,IC50,"[4]; 72 h, read-out: Cytotoxicity IC50, WiDr Colon",33 ± 6 µM
same,IC50,[5],450 ± 50 µM
same,IC50,[6],110 ± 10 µM
"C[C@@]12C(=O)OC(=O)[C@]1(C)[C@H]1CC[C@@H]2O1 [Compound 1, cantharidin]","Cell cycle distribution, S-phase",HCT116 cells,significant increased S-phase population
same,IC50,[11],6 to 18 µM
O=C(O)[C@@H](Cc1ccccc1)N1C(=O)C2C3CCC(O3)C2C1=O (stereo partly shown) [Compound 6],IC50,PP1 [1]; [12],> 1000 µM
CSCC[C@@H](C(=O)O)N1C(=O)C2C3CCC(O3)C2C1=O (stereo partly shown) [Compound 19],IC50,PP1 [1]; [12],> 1000 µM
"O=C1OC(=O)[C@H]2[C@@H]1[C@@H]1CC[C@H]2O1 [Compound 3, norcantharidin, reference compound]",IC50,PP1 [1]; [12],5.31 ± 0.36 µM
CO[C@H]([C@H](O)CC(=O)[C@@H](C)[C@@H](O)CC[C@@H](C)[C@@H]1O[C@]2(CC[C@@H](C)[C@H](CC[C@H](C)C(C)=O)O2)CC[C@@H]1C)[C@H](OC(=O)C[C@@H](O)C1=C(C)C(=O)OC1=O)C(C)C [Tautomycin],IC50,PP1 [10]; [19],0.0003 µM
same,IC50,PP2A; [19],1 nM
CC(C)C[C@@H](C(=O)O)N1C(=O)C2C3CCC(O3)C2C1=O (stereo partly shown) [Compound 9],IC50,PP1 [1]; [12],> 1000 µM
"O=C(O)C(Cc1ccc(O)cc1)N1C(=O)C2C3CCC(O3)C2C1=O (single isomer, unassigned) [Compound 16]",IC50,PP1 [1]; [12],101 ± 34 µM
COC[C@@H]([C@H](O)[C@H](O)C(=O)NCC[C@H](C)c1nc(/C=C/C[C@@H]2O[C@]3(C[C@@H](O)[C@@H]2C)O[C@H]([C@H](C[C@H](O)[C@H](C)[C@H](O)[C@H](C)/C=C(C)/C(C)=C/C=C/C(C)=C\C#N)OC)[C@H](OP(=O)(O)O)C3(C)C)co1)N(C)C [Calyculin A],IC50,PP1 [10],0.002 µM
same,IC50,PP2A; [19],0.5 nM
O=C(O)[C@@H](Cc1c[nH]c2ccccc12)N1C(=O)C2C3CCC(O3)C2C1=O (stereo partly shown) [Compound 12],IC50,PP1 [1]; read-out: PP1 IC50,770 ± 146 µM

# From patent US20040209934A1, “Protein phosphate inhibitors” (priority 2001, published 2004)
